Laboratory results published in PubChem BioAssay AID264 (DTP/NCI, 2004).
Several values for one entry are separate records, joined by “and”; a condition that tells them apart may be missing. Equal values may be shown once. Results filed as inconclusive are left out. Numbered stars: 1 amine (or outer) side, 2 acyl side, 3 side chain; on linkers, the order of the positions; unused ones are H or OH. Bridge positions count the residues as written; N and C are the ends. Square brackets hold non-standard residues; d marks the D form. Peptide text beside a SMILES is read from it. I, II: the chains in the order shown. Actinocin(9to1) = Cc1c2oc3c(C)ccc(C(=O)[*:1])c3nc-2c(C(=O)[*:2])c(N)c1=O; aThr = C[C@H](O)[C@H](N)C(=O)O; NMeV = CN[C@H](C(=O)O)C(C)C; Sar = CNCC(=O)O

System: nude mice, LX-1 lung xenograft intrarenal, tumor weight T/C
Experiment: NCI In Vivo Anticancer Drug Screen. Data for tumor model Human Lung LX-1 Xenograft (intrarenal inoculation) in NU/NU Swiss (nude) mice
Conditions: endpoint: mean tumor weight change, higher = larger tumour
How it was run: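 Antitumor effect is expressed as a ratio: the mean tumor measurement of the drug-treated group relative to that of the vehicle-dosed control group.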

[1] = dose: 150.0 mg/kg/injection, schedule: Q04DX003 (sc), vehicle: saline with Tween-80
[2] = dose: 600.0 mg/kg/injection, schedule: Q04DX003 (sc), vehicle: saline with Tween-80
[3] = dose: 1200.0 mg/kg/injection, schedule: Q04DX003 (sc), vehicle: saline with Tween-80
[4] = dose: 300.0 mg/kg/injection, schedule: Q04DX003 (sc), vehicle: saline with Tween-80

Cc1cc(NS(=O)(=O)c2ccc(N=Nc3cc(N=Nc4ccc(S(=O)(=O)Nc5cc(C)nc(C)n5)cc4)c4c(NC(=O)C(Cl)Cl)cccc4c3OC(=O)C(Cl)Cl)cc2)nc(C)n1 (tested in a mixture with another compound)
T/C (dose: 600.0 mg/kg/injection, schedule: Q04DX003 (sc), vehicle: suspension in saline): 95 % of control
T/C (dose: 1200.0 mg/kg/injection, schedule: Q04DX003 (sc), vehicle: suspension in saline): 115 % of control
T/C (dose: 2400.0 mg/kg/injection, schedule: Q04DX003 (sc), vehicle: suspension in saline): 121 % of control

CC[n+]1c(-c2ccccc2)c2cc(N)ccc2c2ccc(N)cc21
T/C (dose: 15.0 mg/kg/injection, schedule: Q04DX003 (sc), vehicle: saline): 80 % of control
T/C (dose: 30.0 mg/kg/injection, schedule: Q04DX003 (sc), vehicle: saline): 81 % of control
T/C (dose: 60.0 mg/kg/injection, schedule: Q04DX003 (sc), vehicle: saline): 33 % of control

CCN1/C(=C/C=C/C=C\C=C\c2sc3ccc4ccccc4c3[n+]2CC)Sc2ccc3ccccc3c21
T/C (dose: 6.25 mg/kg/injection, schedule: Q04DX003 (sc), vehicle: saline with Tween-80): 156 % of control
T/C (dose: 12.5 mg/kg/injection, schedule: Q04DX003 (sc), vehicle: saline with Tween-80): 116 % of control
T/C (dose: 25.0 mg/kg/injection, schedule: Q04DX003 (sc), vehicle: saline with Tween-80): 78 % of control
T/C (dose: 50.0 mg/kg/injection, schedule: Q04DX003 (sc), vehicle: saline with Tween-80): 122 % of control

CC(=S)NC(O)C(=O)c1ccccc1 (stereo not drawn)
T/C [1]: 109 % of control
T/C [2]: 63 % of control
T/C [3]: 99 % of control

COc1cc(C2c3cc4c(cc3C(O)C(CO)C2CO)OCO4)cc(OC)c1OC (stereo not drawn)
T/C [4]: 103 % of control
T/C [2]: 95 % of control
T/C [3]: 90 % of control
T/C (dose: 2400.0 mg/kg/injection, schedule: Q04DX003 (sc), vehicle: saline with Tween-80): 38 % of control

CN=S(=O)(OCCCCCOS(=O)(=NC)c1ccc(C)cc1)c1ccc(C)cc1 (stereo not drawn)
T/C (dose: 37.5 mg/kg/injection, schedule: Q04DX003 (sc), vehicle: saline with Tween-80): 72 % of control
T/C (dose: 75.0 mg/kg/injection, schedule: Q04DX003 (sc), vehicle: saline with Tween-80): 83 % of control
T/C [1]: 88 % of control
T/C [4]: 30 % of control

Cc1c2ccc3ccccc3c2c[n+]2ccccc12
T/C (dose: 4.69 mg/kg/injection, schedule: Q04DX003 (sc), vehicle: Klucel (hydroxypropylcellulose) (HPC)): 110 % of control
T/C (dose: 9.38 mg/kg/injection, schedule: Q04DX003 (sc), vehicle: Klucel (hydroxypropylcellulose) (HPC)): 87 % of control
T/C (dose: 18.75 mg/kg/injection, schedule: Q04DX003 (sc), vehicle: Klucel (hydroxypropylcellulose) (HPC)): 72 % of control

C[C@H](CCC[C@H](C)OS(=O)(=O)c1ccccc1)OS(=O)(=O)c1ccccc1
T/C [1]: 87 % of control
T/C [4]: 45 % of control

CC(=O)OCC(=O)[C@@]12OC(C)(C)O[C@@H]1C[C@H]1[C@@H]3CC(C=O)=C4C=C(OCCCl)CC[C@]4(C)[C@@]3(F)[C@@H](O)C[C@@]12C
T/C (dose: 25.0 mg/kg/injection, schedule: Q04DX003 (sc), vehicle: Klucel (hydroxypropylcellulose) (HPC)): 79 % of control
T/C (dose: 50.0 mg/kg/injection, schedule: Q04DX003 (sc), vehicle: Klucel (hydroxypropylcellulose) (HPC)): 72 % of control

Cc1c2oc3c(C)ccc(C(=O)N[C@@H]4C(=O)N[C@H](C(C)C)C(=O)N5CCC[C@H]5C(=O)N(C)CC(=O)N(C)[C@@H](C(C)C)C(=O)O[C@H]4C)c3nc-2c(C(=O)N[C@@H]2C(=O)N[C@H](C(C)C)C(=O)N3CCC[C@H]3C(=O)N(C)CC(=O)N(C)[C@@H](C(C)C)C(=O)O[C@H]2C)c(N)c1=O (I: [aThr][dV]P[Sar][NMeV] / II: [aThr][dV]P[Sar][NMeV]; ester I:1-I:C, II:1-II:C; linker I:N-II:N via Actinocin(9to1))
T/C (dose: 100.0 micrograms/kg/injection, schedule: Q01DX010 (sc), vehicle: saline): 13 % of control and 24 % of control
T/C (dose: 200.0 micrograms/kg/injection, schedule: Q01DX010 (sc), vehicle: saline): 13 % of control

Cc1c2cc[n+](C)cc2c(C)c2c1[nH]c1ccc(O)cc12
T/C (dose: 1.5 mg/kg/injection, schedule: Q04DX003 (sc), vehicle: water): 151 % of control

OCC1OC(n2cnc3c2NC=NC[C@H]3O)CC1O (stereo partly drawn)
T/C (dose: 1.0 mg/kg/injection, schedule: Q01DX010 (sc), vehicle: water): 122 % of control
T/C (dose: 2.0 mg/kg/injection, schedule: Q01DX010 (sc), vehicle: water): 68 % of control and 70 % of control and 91 % of control

C(C#CCN1CCOCC1)#CCN1CCOCC1
T/C (dose: 300.0 mg/kg/injection, schedule: Q04DX003 (sc), vehicle: Klucel (hydroxypropylcellulose) (HPC)): 124 % of control
T/C (dose: 600.0 mg/kg/injection, schedule: Q04DX003 (sc), vehicle: Klucel (hydroxypropylcellulose) (HPC)): 76 % of control
T/C (dose: 1200.0 mg/kg/injection, schedule: Q04DX003 (sc), vehicle: Klucel (hydroxypropylcellulose) (HPC)): 84 % of control

COc1cccc2c1C(=O)c1c(O)c3c(c(O)c1C2=O)CC(O)(/C(C)=N/NC(=O)CCCCC(=O)N/N=C(\C)C1(O)Cc2c(O)c4c(c(O)c2C(OC2CC(N)C(O)C(C)O2)C1)C(=O)c1c(OC)cccc1C4=O)CC3OC1CC(N)C(O)C(C)O1 (stereo not drawn)
T/C (dose: 12.5 mg/kg/injection, schedule: Q04DX003 (sc), vehicle: water): 28 % of control
T/C (dose: 100.0 mg/kg/injection, schedule: Q04DX003 (sc), vehicle: water): 19 % of control
